Patent publication US7118895B2, “Process for producing aglycon by using diglycosidase and flavor-improved food containing the aglycon and converting agent to be used in the process” (Amano Enzyme Inc., priority 2000, dated 2006)

Test system: Crude diglycosidase
Test: Examination of substrate concentration in the conversion into isoflavone aglycons by diglycosidase using soybean materials;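 note: percent of the isoflavone family total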
Format: biochemical, Penicillium multicolor IAM7153
Procedure: Into 20 mM acetate buffer of pH 4.0 was suspended 0.1 g, 0.25 g, 0.5 g, 1.0 g, or 1.5 g of each of various soybean materials (roasted soy flour (manufactured by Fuji Shokuryo K.K.), soymilk (manufactured by Gitoh Shokuhin K.K.), defatted soybean (manufactured by Fuji Seiyu K.K.), concentrated soybean protein (manufactured by Fuji Seiyu K.K.)). The pH of the suspension was measured and the liquid volume was adjusted to 4.5 mL while the pH was adjusted to 4.0 with 1N hydrochloric acid. An enzyme solution wherein diglycosidase activity of crude diglycosidase was adjusted to 1.88 AU/mL was added thereto in an amount of 0.5 mL, whereby the final liquid volume was 5.0 mL. Namely, the ratio of the soybean material in the reaction mixture was 2%, 5%, 10%, 20%, or 30% (w/v). The whole was reacted at 55° C. under shaking. To 5 mL of the reaction mixture was added 7 mL of ethanol after 0, 1, 3, and 6 hours of the reaction. After ultrasonication, the mixture was thoroughly mixed. It was subjected to centrifugal separation at 2,000 rpm and room temperature for 5 minutes. Then, […] of the supernatant was placed in a 1.5 mL microtube and was subjected to centrifugal separation at 15,000 rpm and 4° C. for 10 minutes. The supernatant was filtered through a filter and each sample was suitably diluted by a factor of 1 to 6 depending on the substrate concentration. Fifty μL of the diluted solution was analyzed by HLPC (Tables 27 to 38).

[1] = soymilk, substrate concentration 2%, heat treatment of enzyme no, reaction time 0 h
[2] = soymilk, substrate concentration 2%, heat treatment of enzyme no, reaction time 1 h
[3] = soymilk, substrate concentration 2%, heat treatment of enzyme no, reaction time 3 h
[4] = soymilk, substrate concentration 2%, heat treatment of enzyme no, reaction time 6 h
[5] = soymilk, substrate concentration 2%, heat treatment of enzyme yes, reaction time 6 h
[6] = soymilk, substrate concentration 5%, heat treatment of enzyme no, reaction time 0 h
[7] = soymilk, substrate concentration 5%, heat treatment of enzyme no, reaction time 1 h
[8] = soymilk, substrate concentration 5%, heat treatment of enzyme no, reaction time 3 h
[9] = soymilk, substrate concentration 5%, heat treatment of enzyme no, reaction time 6 h
[10] = soymilk, substrate concentration 5%, heat treatment of enzyme yes, reaction time 6 h
[11] = soymilk, substrate concentration 10%, heat treatment of enzyme no, reaction time 0 h
[12] = soymilk, substrate concentration 10%, heat treatment of enzyme no, reaction time 1 h
[13] = soymilk, substrate concentration 10%, heat treatment of enzyme no, reaction time 3 h
[14] = soymilk, substrate concentration 10%, heat treatment of enzyme no, reaction time 6 h
[15] = soymilk, substrate concentration 10%, heat treatment of enzyme yes, reaction time 6 h
[16] = soymilk, substrate concentration 20%, heat treatment of enzyme no, reaction time 0 h
[17] = soymilk, substrate concentration 20%, heat treatment of enzyme no, reaction time 1 h
[18] = soymilk, substrate concentration 20%, heat treatment of enzyme no, reaction time 3 h
[19] = soymilk, substrate concentration 20%, heat treatment of enzyme no, reaction time 6 h
[20] = soymilk, substrate concentration 20%, heat treatment of enzyme yes, reaction time 6 h
[21] = soymilk, substrate concentration 30%, heat treatment of enzyme no, reaction time 0 h
[22] = soymilk, substrate concentration 30%, heat treatment of enzyme no, reaction time 1 h
[23] = soymilk, substrate concentration 30%, heat treatment of enzyme no, reaction time 3 h
[24] = soymilk, substrate concentration 30%, heat treatment of enzyme no, reaction time 6 h
[25] = soymilk, substrate concentration 30%, heat treatment of enzyme yes, reaction time 6 h

Compound: COc1cc2c(=O)c(-c3ccc(O)cc3)coc2cc1O[C@@H]1O[C@H](COC(C)=O)[C@@H](O)[C@H](O)[C@H]1O [acetyl-glycitin]
- Decomposition efficiency: ratio of each glycoside/aglycon within its isoflavone family [1]: not detected
- Decomposition efficiency: ratio of each glycoside/aglycon within its isoflavone family [2]: not detected
- Decomposition efficiency: ratio of each glycoside/aglycon within its isoflavone family [3]: not detected
- Decomposition efficiency: ratio of each glycoside/aglycon within its isoflavone family [4]: not detected
- Decomposition efficiency: ratio of each glycoside/aglycon within its isoflavone family [5]: not detected
- Decomposition efficiency: ratio of each glycoside/aglycon within its isoflavone family [6]: not detected
- Decomposition efficiency: ratio of each glycoside/aglycon within its isoflavone family [7]: not detected
- Decomposition efficiency: ratio of each glycoside/aglycon within its isoflavone family [8]: not detected
- Decomposition efficiency: ratio of each glycoside/aglycon within its isoflavone family [9]: not detected
- Decomposition efficiency: ratio of each glycoside/aglycon within its isoflavone family [10]: not detected
- Decomposition efficiency: ratio of each glycoside/aglycon within its isoflavone family [11]: not detected
- Decomposition efficiency: ratio of each glycoside/aglycon within its isoflavone family [12]: not detected
- Decomposition efficiency: ratio of each glycoside/aglycon within its isoflavone family [13]: not detected
- Decomposition efficiency: ratio of each glycoside/aglycon within its isoflavone family [14]: not detected
- Decomposition efficiency: ratio of each glycoside/aglycon within its isoflavone family [15]: not detected
- Decomposition efficiency: ratio of each glycoside/aglycon within its isoflavone family [16]: not detected
- Decomposition efficiency: ratio of each glycoside/aglycon within its isoflavone family [17]: not detected
- Decomposition efficiency: ratio of each glycoside/aglycon within its isoflavone family [18]: not detected
- Decomposition efficiency: ratio of each glycoside/aglycon within its isoflavone family [19]: not detected
- Decomposition efficiency: ratio of each glycoside/aglycon within its isoflavone family [20]: not detected
- Decomposition efficiency: ratio of each glycoside/aglycon within its isoflavone family [21]: not detected
- Decomposition efficiency: ratio of each glycoside/aglycon within its isoflavone family [22]: not detected
- Decomposition efficiency: ratio of each glycoside/aglycon within its isoflavone family [23]: not detected
- Decomposition efficiency: ratio of each glycoside/aglycon within its isoflavone family [24]: not detected
- Decomposition efficiency: ratio of each glycoside/aglycon within its isoflavone family [25]: not detected

Compound: CC(=O)OC[C@H]1O[C@@H](Oc2ccc3c(=O)c(-c4ccc(O)cc4)coc3c2)[C@H](O)[C@@H](O)[C@@H]1O [acetyl-daidzin]
- Decomposition efficiency: ratio of each glycoside/aglycon within its isoflavone family [1]: not detected
- Decomposition efficiency: ratio of each glycoside/aglycon within its isoflavone family [2]: not detected
- Decomposition efficiency: ratio of each glycoside/aglycon within its isoflavone family [3]: not detected
- Decomposition efficiency: ratio of each glycoside/aglycon within its isoflavone family [4]: not detected
- Decomposition efficiency: ratio of each glycoside/aglycon within its isoflavone family [5]: not detected
- Decomposition efficiency: ratio of each glycoside/aglycon within its isoflavone family [6]: not detected
- Decomposition efficiency: ratio of each glycoside/aglycon within its isoflavone family [7]: not detected
- Decomposition efficiency: ratio of each glycoside/aglycon within its isoflavone family [8]: not detected
- Decomposition efficiency: ratio of each glycoside/aglycon within its isoflavone family [9]: not detected
- Decomposition efficiency: ratio of each glycoside/aglycon within its isoflavone family [10]: not detected
- Decomposition efficiency: ratio of each glycoside/aglycon within its isoflavone family [11]: not detected
- Decomposition efficiency: ratio of each glycoside/aglycon within its isoflavone family [12]: not detected
- Decomposition efficiency: ratio of each glycoside/aglycon within its isoflavone family [13]: not detected
- Decomposition efficiency: ratio of each glycoside/aglycon within its isoflavone family [14]: not detected
- Decomposition efficiency: ratio of each glycoside/aglycon within its isoflavone family [15]: not detected
- Decomposition efficiency: ratio of each glycoside/aglycon within its isoflavone family [16]: not detected
- Decomposition efficiency: ratio of each glycoside/aglycon within its isoflavone family [17]: not detected
- Decomposition efficiency: ratio of each glycoside/aglycon within its isoflavone family [18]: not detected
- Decomposition efficiency: ratio of each glycoside/aglycon within its isoflavone family [19]: not detected
- Decomposition efficiency: ratio of each glycoside/aglycon within its isoflavone family [20]: not detected
- Decomposition efficiency: ratio of each glycoside/aglycon within its isoflavone family [21]: not detected
- Decomposition efficiency: ratio of each glycoside/aglycon within its isoflavone family [22]: not detected
- Decomposition efficiency: ratio of each glycoside/aglycon within its isoflavone family [23]: not detected
- Decomposition efficiency: ratio of each glycoside/aglycon within its isoflavone family [24]: not detected
- Decomposition efficiency: ratio of each glycoside/aglycon within its isoflavone family [25]: not detected

Compound: CC(=O)OC[C@H]1O[C@@H](Oc2ccc3c(=O)c(-c4ccc(O)cc4)coc3c2)[C@H](O)[C@@H](O)[C@@H]1O [acetly-daidzin]
- Decomposition efficiency: ratio of each glycoside/aglycon within its isoflavone family (concentrated soybean protein, substrate concentration 2%, heat treatment of enzyme no, reaction time 0 h): 44.0%
- Decomposition efficiency: ratio of each glycoside/aglycon within its isoflavone family (concentrated soybean protein, substrate concentration 2%, heat treatment of enzyme no, reaction time 1 h): 17.8%
- Decomposition efficiency: ratio of each glycoside/aglycon within its isoflavone family (concentrated soybean protein, substrate concentration 2%, heat treatment of enzyme no, reaction time 3 h): 5.3%
- Decomposition efficiency: ratio of each glycoside/aglycon within its isoflavone family (concentrated soybean protein, substrate concentration 2%, heat treatment of enzyme no, reaction time 6 h): not detected
- Decomposition efficiency: ratio of each glycoside/aglycon within its isoflavone family (concentrated soybean protein, substrate concentration 2%, heat treatment of enzyme yes, reaction time 6 h): 43.2%
- Decomposition efficiency: ratio of each glycoside/aglycon within its isoflavone family (concentrated soybean protein, substrate concentration 5%, heat treatment of enzyme no, reaction time 0 h): 44.0%
- Decomposition efficiency: ratio of each glycoside/aglycon within its isoflavone family (concentrated soybean protein, substrate concentration 5%, heat treatment of enzyme no, reaction time 3 h): 20.5%
- Decomposition efficiency: ratio of each glycoside/aglycon within its isoflavone family (concentrated soybean protein, substrate concentration 5%, heat treatment of enzyme no, reaction time 6 h): 12.0%
- Decomposition efficiency: ratio of each glycoside/aglycon within its isoflavone family (concentrated soybean protein, substrate concentration 5%, heat treatment of enzyme yes, reaction time 6 h): 43.0%
- Decomposition efficiency: ratio of each glycoside/aglycon within its isoflavone family (concentrated soybean protein, substrate concentration 10%, heat treatment of enzyme no, reaction time 0 h): 44.2%
- Decomposition efficiency: ratio of each glycoside/aglycon within its isoflavone family (concentrated soybean protein, substrate concentration 10%, heat treatment of enzyme no, reaction time 1 h): 39.7%
- Decomposition efficiency: ratio of each glycoside/aglycon within its isoflavone family (concentrated soybean protein, substrate concentration 10%, heat treatment of enzyme no, reaction time 3 h): 32.9%
- Decomposition efficiency: ratio of each glycoside/aglycon within its isoflavone family (concentrated soybean protein, substrate concentration 10%, heat treatment of enzyme no, reaction time 6 h): 26.9%
- Decomposition efficiency: ratio of each glycoside/aglycon within its isoflavone family (concentrated soybean protein, substrate concentration 10%, heat treatment of enzyme yes, reaction time 6 h): 43.4%
- Decomposition efficiency: ratio of each glycoside/aglycon within its isoflavone family (concentrated soybean protein, substrate concentration 20%, heat treatment of enzyme no, reaction time 0 h): 44.1%
- Decomposition efficiency: ratio of each glycoside/aglycon within its isoflavone family (concentrated soybean protein, substrate concentration 20%, heat treatment of enzyme no, reaction time 3 h): 41.5%
- Decomposition efficiency: ratio of each glycoside/aglycon within its isoflavone family (concentrated soybean protein, substrate concentration 20%, heat treatment of enzyme no, reaction time 6 h): 37.9%
- Decomposition efficiency: ratio of each glycoside/aglycon within its isoflavone family (concentrated soybean protein, substrate concentration 20%, heat treatment of enzyme yes, reaction time 6 h): 44.0%
- Decomposition efficiency: ratio of each glycoside/aglycon within its isoflavone family (concentrated soybean protein, substrate concentration 30%, heat treatment of enzyme no, reaction time 0 h): 49.2%
- Decomposition efficiency: ratio of each glycoside/aglycon within its isoflavone family (concentrated soybean protein, substrate concentration 30%, heat treatment of enzyme no, reaction time 1 h): 56.6%
- Decomposition efficiency: ratio of each glycoside/aglycon within its isoflavone family (concentrated soybean protein, substrate concentration 30%, heat treatment of enzyme no, reaction time 3 h): 49.9%
- Decomposition efficiency: ratio of each glycoside/aglycon within its isoflavone family (concentrated soybean protein, substrate concentration 30%, heat treatment of enzyme no, reaction time 6 h): 42.8%
- Decomposition efficiency: ratio of each glycoside/aglycon within its isoflavone family (concentrated soybean protein, substrate concentration 30%, heat treatment of enzyme yes, reaction time 6 h): 48.4%
